From ChEMBL document CHEMBL4507263, “Data for DCP probe BAY-474” (2021)
Calls of active or inactive are those of the source. The calls are words filed in the database; no cut-off is given here.

How the values were obtained:
[1] = molecular target: Hepatocyte growth factor receptor (Homo sapiens, UniProt P08581); experiment: Homogeneous Time Resolved Fluorescence Assay
[2] = molecular target: 5-hydroxytryptamine receptor 1E (Homo sapiens) (UniProt P28566); conditions: Compound concentration 10.0 uM
[3] = molecular target: 5-hydroxytryptamine receptor 2C (Homo sapiens) (UniProt P28335); conditions: Compound concentration 10.0 uM
[4] = molecular target: 5-hydroxytryptamine receptor 3A (Homo sapiens) (UniProt P46098); conditions: Compound concentration 10.0 uM
[5] = molecular target: 5-hydroxytryptamine receptor 6 (Homo sapiens, UniProt P50406); conditions: Compound concentration 10.0 uM
[6] = molecular target: 5-hydroxytryptamine receptor 7 (Homo sapiens) (UniProt P34969); conditions: Compound concentration 10.0 uM
[7] = molecular target: D(1A) dopamine receptor (Homo sapiens) (UniProt P21728); conditions: Compound concentration 10.0 uM
[8] = molecular target: T1, D(4) dopamine receptor (Homo sapiens) (UniProt P21917); conditions: Compound concentration 10.0 uM
T1 sequence (whole entry): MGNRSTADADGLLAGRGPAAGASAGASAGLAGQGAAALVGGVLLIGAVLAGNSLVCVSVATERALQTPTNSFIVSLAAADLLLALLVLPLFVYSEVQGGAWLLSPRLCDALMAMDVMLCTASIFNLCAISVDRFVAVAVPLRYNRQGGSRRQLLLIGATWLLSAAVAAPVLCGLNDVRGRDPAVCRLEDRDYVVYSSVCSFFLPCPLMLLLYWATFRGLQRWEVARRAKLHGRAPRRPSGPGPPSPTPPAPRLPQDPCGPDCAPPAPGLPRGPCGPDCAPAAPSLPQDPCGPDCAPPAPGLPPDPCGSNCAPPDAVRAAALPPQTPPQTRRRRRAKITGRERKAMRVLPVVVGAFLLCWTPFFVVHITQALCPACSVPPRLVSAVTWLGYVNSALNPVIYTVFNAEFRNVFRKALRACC

D(1B) dopamine receptor = D(1B) dopamine receptor (Homo sapiens, UniProt P21918); conditions: Compound concentration 10.0 uM
[9] = molecular target: Mu-type opioid receptor (Homo sapiens) (UniProt P35372); conditions: Compound concentration 10.0 uM
[10] = molecular target: Delta-type opioid receptor (Homo sapiens) (UniProt P41143); conditions: Compound concentration 10.0 uM
[11] = molecular target: Alpha-1B adrenergic receptor (Homo sapiens) (UniProt P35368); conditions: Compound concentration 10.0 uM
[12] = molecular target: Alpha-2B adrenergic receptor (Homo sapiens) (UniProt P18089); conditions: Compound concentration 10.0 uM
[13] = molecular target: Alpha-2C adrenergic receptor (Homo sapiens) (UniProt P18825); conditions: Compound concentration 10.0 uM
[14] = molecular target: Beta-1 adrenergic receptor (Homo sapiens) (UniProt P08588); conditions: Compound concentration 10.0 uM
[15] = molecular target: Beta-2 adrenergic receptor (Homo sapiens) (UniProt P07550); conditions: Compound concentration 10.0 uM
[16] = molecular target: T2, Muscarinic acetylcholine receptor M1 (Homo sapiens) (UniProt P11229); conditions: Compound concentration 10.0 uM
T2 sequence (whole entry): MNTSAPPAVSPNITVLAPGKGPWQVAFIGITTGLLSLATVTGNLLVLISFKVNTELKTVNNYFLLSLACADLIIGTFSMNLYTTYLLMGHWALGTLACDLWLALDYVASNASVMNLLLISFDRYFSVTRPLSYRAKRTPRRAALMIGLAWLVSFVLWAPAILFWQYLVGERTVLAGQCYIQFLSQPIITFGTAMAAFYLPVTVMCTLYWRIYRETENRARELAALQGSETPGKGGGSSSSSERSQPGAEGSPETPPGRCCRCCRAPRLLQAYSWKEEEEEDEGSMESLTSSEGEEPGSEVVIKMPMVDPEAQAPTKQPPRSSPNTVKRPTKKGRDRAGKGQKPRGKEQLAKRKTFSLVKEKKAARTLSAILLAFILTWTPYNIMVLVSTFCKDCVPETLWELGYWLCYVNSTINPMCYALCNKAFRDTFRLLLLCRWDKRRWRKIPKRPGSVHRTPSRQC

[17] = molecular target: T3, Muscarinic acetylcholine receptor M2 (Homo sapiens) (UniProt P08172); conditions: Compound concentration 10.0 uM
T3 sequence (whole entry): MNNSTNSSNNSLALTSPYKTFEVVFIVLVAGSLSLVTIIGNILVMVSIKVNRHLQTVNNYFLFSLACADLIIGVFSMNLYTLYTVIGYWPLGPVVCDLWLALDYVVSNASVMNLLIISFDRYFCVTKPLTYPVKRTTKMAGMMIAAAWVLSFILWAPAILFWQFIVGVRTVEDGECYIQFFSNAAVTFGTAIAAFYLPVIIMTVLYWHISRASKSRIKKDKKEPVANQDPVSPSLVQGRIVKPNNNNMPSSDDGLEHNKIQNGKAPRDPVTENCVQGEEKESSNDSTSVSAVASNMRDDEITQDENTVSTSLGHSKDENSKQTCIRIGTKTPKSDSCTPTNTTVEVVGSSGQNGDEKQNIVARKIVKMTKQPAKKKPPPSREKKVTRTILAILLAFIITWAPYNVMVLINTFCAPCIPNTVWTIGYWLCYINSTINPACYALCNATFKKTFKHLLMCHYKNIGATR

[18] = molecular target: Muscarinic acetylcholine receptor M3 (Homo sapiens) (UniProt P20309); conditions: Compound concentration 10.0 uM
[19] = molecular target: Muscarinic acetylcholine receptor M4 (Homo sapiens) (UniProt P08173); conditions: Compound concentration 10.0 uM
[20] = molecular target: Muscarinic acetylcholine receptor M5 (Homo sapiens) (UniProt P08912); conditions: Compound concentration 10.0 uM
[21] = molecular target: Beta-3 adrenergic receptor (Homo sapiens) (UniProt P13945); conditions: Compound concentration 10.0 uM
[22] = molecular target: Sigma non-opioid intracellular receptor 1 (Homo sapiens) (UniProt Q99720); conditions: Compound concentration 10.0 uM

Sequence of 5-hydroxytryptamine receptor 2C (Homo sapiens) (P28335 whole entry): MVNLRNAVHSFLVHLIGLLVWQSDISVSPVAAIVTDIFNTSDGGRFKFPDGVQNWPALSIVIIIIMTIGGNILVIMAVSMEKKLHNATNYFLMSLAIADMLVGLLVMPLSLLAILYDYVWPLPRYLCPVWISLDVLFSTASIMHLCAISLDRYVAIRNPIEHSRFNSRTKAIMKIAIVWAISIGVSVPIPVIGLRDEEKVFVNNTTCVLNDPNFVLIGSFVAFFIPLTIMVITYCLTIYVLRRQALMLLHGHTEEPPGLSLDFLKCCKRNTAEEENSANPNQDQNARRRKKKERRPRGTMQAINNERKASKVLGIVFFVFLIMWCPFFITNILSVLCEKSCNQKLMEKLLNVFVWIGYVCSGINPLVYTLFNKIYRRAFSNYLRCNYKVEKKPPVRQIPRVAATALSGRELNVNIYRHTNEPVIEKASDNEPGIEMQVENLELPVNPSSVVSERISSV
Sequence of Muscarinic acetylcholine receptor M4 (Homo sapiens) (P08173 whole entry): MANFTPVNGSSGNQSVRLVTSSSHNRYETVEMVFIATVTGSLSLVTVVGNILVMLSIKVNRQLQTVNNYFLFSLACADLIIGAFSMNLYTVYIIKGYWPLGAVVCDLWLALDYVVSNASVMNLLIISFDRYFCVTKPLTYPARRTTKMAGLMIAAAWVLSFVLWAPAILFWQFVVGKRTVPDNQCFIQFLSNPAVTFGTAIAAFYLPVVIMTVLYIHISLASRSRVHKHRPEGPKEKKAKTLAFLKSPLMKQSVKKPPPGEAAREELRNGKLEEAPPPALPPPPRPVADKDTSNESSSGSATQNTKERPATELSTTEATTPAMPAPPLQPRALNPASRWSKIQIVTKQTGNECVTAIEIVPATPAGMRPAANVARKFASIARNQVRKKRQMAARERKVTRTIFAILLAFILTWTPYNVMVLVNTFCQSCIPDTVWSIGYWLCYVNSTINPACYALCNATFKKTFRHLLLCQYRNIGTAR
Sequence of Hepatocyte growth factor receptor (P08581 whole entry): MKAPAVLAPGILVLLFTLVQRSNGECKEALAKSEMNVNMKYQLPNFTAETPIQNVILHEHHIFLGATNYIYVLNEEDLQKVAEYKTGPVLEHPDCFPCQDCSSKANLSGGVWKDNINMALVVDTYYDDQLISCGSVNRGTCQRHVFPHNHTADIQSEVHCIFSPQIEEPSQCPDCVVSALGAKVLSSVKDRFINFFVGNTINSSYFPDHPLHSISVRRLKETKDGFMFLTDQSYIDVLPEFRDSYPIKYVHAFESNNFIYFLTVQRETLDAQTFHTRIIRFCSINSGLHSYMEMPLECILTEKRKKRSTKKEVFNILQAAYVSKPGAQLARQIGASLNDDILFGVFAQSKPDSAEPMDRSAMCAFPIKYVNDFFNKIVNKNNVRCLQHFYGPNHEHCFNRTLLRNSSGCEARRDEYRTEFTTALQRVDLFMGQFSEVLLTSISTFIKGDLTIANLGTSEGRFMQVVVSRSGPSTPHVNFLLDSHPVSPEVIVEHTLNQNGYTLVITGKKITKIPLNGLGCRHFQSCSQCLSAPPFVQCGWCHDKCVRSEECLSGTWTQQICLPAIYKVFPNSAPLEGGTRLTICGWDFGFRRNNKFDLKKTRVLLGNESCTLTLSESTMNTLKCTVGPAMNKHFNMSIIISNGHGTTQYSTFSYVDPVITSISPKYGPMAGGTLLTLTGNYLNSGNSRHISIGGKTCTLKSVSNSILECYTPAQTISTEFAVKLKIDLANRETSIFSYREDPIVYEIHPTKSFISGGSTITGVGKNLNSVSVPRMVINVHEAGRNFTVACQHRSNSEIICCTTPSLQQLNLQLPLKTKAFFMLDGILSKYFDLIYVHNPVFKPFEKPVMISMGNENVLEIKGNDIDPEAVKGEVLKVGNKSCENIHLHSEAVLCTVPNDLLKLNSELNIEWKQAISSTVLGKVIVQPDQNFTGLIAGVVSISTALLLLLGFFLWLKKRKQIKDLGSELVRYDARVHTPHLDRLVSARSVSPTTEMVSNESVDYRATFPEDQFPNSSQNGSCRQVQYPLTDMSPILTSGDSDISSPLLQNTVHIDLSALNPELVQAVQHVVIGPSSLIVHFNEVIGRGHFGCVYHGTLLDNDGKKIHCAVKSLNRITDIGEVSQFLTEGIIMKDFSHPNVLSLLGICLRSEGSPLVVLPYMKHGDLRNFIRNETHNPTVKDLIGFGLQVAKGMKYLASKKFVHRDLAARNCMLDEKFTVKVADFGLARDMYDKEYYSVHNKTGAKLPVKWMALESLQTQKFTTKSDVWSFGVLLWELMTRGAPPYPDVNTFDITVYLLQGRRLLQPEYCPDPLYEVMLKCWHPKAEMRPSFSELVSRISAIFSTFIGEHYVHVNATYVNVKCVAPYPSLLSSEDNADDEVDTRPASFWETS
Sequence of Alpha-2C adrenergic receptor (Homo sapiens) (P18825 whole entry): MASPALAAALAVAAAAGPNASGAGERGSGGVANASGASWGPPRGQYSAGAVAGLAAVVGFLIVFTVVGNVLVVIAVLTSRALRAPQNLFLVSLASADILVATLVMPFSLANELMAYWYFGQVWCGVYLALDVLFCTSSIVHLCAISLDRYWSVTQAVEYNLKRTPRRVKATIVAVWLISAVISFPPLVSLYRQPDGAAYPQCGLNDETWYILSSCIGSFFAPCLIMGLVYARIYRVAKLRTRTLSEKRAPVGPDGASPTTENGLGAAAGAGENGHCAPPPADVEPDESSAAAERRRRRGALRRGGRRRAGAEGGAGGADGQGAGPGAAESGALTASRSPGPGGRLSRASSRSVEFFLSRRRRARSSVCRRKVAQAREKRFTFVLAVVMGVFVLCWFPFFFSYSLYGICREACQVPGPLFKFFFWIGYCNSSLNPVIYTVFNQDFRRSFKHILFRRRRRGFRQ
Sequence of Beta-3 adrenergic receptor (Homo sapiens) (P13945 whole entry, looked up): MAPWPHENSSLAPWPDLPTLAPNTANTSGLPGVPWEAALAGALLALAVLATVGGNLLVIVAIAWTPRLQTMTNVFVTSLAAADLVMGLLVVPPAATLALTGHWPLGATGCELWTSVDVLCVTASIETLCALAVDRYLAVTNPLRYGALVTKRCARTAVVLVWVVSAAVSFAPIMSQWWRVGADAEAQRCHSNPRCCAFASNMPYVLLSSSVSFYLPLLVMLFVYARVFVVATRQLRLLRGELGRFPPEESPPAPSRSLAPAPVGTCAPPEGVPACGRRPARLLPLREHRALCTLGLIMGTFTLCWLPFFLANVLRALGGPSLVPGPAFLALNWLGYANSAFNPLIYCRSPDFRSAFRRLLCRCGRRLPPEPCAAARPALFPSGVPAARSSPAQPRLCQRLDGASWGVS
Sequence of D(1A) dopamine receptor (Homo sapiens) (P21728 whole entry): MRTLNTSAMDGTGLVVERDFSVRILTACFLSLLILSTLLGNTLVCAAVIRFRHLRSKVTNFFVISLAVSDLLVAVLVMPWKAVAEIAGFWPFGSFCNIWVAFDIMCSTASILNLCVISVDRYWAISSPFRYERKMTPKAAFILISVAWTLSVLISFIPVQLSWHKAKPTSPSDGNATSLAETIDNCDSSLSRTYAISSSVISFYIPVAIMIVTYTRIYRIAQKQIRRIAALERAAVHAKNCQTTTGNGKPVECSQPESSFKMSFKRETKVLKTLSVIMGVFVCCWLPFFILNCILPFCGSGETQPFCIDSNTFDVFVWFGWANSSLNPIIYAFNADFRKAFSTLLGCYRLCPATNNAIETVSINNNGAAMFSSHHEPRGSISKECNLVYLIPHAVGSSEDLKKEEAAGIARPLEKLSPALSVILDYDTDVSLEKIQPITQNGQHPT
Sequence of 5-hydroxytryptamine receptor 7 (Homo sapiens) (P34969 whole entry): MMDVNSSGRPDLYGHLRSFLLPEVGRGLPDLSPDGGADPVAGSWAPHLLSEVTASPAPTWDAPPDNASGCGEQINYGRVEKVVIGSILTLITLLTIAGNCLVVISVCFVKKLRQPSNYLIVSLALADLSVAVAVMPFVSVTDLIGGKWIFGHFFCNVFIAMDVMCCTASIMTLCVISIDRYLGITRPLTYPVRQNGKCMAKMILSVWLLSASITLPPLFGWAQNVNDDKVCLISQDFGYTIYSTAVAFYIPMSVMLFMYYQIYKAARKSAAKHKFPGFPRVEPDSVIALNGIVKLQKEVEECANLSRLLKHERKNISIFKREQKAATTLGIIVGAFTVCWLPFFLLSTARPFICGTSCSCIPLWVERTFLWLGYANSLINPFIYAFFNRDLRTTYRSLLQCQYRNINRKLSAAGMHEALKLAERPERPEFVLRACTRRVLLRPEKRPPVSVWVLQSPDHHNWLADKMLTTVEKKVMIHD
Sequence of D(1B) dopamine receptor (P21918 whole entry): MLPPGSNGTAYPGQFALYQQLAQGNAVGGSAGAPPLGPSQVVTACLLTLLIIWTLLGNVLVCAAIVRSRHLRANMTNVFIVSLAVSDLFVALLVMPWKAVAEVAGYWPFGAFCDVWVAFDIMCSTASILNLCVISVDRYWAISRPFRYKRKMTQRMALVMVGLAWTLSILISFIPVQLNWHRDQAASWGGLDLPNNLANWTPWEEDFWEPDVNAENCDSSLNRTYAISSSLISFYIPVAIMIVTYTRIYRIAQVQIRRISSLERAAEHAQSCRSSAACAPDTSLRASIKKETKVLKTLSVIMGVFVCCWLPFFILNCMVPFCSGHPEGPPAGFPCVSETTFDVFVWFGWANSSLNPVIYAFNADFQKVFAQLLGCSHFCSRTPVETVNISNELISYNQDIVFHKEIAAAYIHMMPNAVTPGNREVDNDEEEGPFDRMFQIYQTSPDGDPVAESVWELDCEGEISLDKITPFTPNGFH
Sequence of 5-hydroxytryptamine receptor 1E (Homo sapiens) (P28566 whole entry): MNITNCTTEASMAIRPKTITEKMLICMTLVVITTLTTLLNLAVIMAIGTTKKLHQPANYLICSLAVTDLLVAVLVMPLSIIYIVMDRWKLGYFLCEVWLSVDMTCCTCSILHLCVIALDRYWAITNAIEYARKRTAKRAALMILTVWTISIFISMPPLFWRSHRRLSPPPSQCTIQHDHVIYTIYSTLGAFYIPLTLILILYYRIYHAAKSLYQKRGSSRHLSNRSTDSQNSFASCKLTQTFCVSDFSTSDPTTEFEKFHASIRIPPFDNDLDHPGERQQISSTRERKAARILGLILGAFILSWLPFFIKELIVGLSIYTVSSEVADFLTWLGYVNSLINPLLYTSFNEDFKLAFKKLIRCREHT

| Structure (SMILES) | IC50 [1] | inhibition [2] [%] | inhibition [3] [%] | inhibition [4] [%] | inhibition [5] [%] | inhibition [6] [%] | inhibition [7] [%] | inhibition [8] [%] | inhibition (D(1B) dopamine receptor) [%] | inhibition [9] [%] | inhibition [10] [%] | inhibition [11] [%] | inhibition [12] [%] | inhibition [13] [%] | inhibition [14] [%] | inhibition [15] [%] | inhibition [16] [%] | inhibition [17] [%] | inhibition [18] [%] | inhibition [19] [%] | other results |
| --- | --- | --- | --- | --- | --- | --- | --- | --- | --- | --- | --- | --- | --- | --- | --- | --- | --- | --- | --- | --- | --- |
| CC1=C(C#N)C(c2ccc3[nH]nc(C)c3c2)C(C#N)=C(C)N1 [BAY-474] | < 0.001 µM (active) | 8.21 | 22.4 | 33 | 20.7 | -0.97 | 6.92 | 24 | 5.4 | 2.64 | 16.9 | 1.79 | 8.04 | -4.65 | 2.16 | 20.2 | 13.9 | -8.64 | -1.54 | 5.33 | inhibition [20]: 5.48%; inhibition [21]: 21.1%; inhibition [22]: -9.08% |
| CC1=C(C#N)[C@@H](c2ccc3[nH]nc(C)c3c2)C(C#N)=C(c2ccc(Cl)cc2)N1 [BAY-827] | 11 µM (not active) | -3.84 | 71.8 | 2.6 | 55.7 | 8.19 | 6.7 | 5.34 | 58.1 | -0.0207 | 33.4 | 21.7 | 4.71 | -1.57 | 4.66 | -0.813 | 8.17 | 18.8 | 8.81 | 13 | inhibition [20]: 9.95%; inhibition [21]: 24.3%; inhibition [22]: 14.6% |
